Experimental data taken from patent US20260085073A1, “PYRAZOLYLCARBOXAMIDE COMPOUNDS AND THEIR USE IN THERAPY” (Hotspot Therapeutics, Inc., priority 2022, published 2026).

Each compound was assayed against T1, MALT1 (Homo sapiens, UniProt Q9UDY8) (assay: MALT1 inhibition assay (MALT-1 Fluorogenic Peptide Cleavage Assay, Ac-LRSR-AMC substrate)). Settings: Avi-tagged FL MALT-1, 30 min pre-incubation, 90 min reaction at room temperature, fluorescence intensity.
T1 construct: Avi-tagged FL MALT-1 (Pharmaron, stored at −70° C.); Avi-tag
T1 sequence (Q9UDY8 1-824): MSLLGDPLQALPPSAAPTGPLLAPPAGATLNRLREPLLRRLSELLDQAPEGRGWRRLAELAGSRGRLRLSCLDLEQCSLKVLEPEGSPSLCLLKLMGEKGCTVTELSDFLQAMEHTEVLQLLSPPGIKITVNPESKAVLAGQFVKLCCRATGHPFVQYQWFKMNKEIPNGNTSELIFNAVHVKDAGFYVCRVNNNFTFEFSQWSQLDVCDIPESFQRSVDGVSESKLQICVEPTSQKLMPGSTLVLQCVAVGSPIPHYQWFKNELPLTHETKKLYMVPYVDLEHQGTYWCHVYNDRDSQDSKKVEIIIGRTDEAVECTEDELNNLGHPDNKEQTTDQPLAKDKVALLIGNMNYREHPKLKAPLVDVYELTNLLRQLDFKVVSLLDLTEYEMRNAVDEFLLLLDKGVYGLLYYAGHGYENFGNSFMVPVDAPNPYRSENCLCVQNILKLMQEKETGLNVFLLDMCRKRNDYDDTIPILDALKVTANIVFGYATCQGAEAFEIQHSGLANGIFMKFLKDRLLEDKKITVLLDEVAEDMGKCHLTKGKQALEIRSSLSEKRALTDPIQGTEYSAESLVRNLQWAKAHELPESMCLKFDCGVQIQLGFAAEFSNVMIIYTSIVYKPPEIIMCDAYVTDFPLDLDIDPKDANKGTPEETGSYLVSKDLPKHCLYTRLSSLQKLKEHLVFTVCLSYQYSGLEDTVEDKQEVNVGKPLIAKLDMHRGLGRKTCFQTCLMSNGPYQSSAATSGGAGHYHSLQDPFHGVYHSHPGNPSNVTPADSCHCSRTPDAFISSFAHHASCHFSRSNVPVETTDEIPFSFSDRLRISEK
Type: biochemical
Protocol: Example 71—MALT1 Inhibition Assay
Compounds were tested for ability to bind to MALT1.
Inhibition of MALT1 activity by the presence of small molecules was evaluated using MALT-1 Fluorogenic Peptide Cleavage Assay. The assay utilizes a quenched AMC-labelled peptide that contains the MALT-1 recognition sequence and cleavage site (LRSR). MALT-1 mediated cleavage of the peptide relieves the quenching and leads to an increase in fluorescence at excitation (342 nm) and emission (441 nm).
The following reagents were obtained commercially and used to prepare standard reagent formulations as further described below: N-2-hydroxyethylpiperazine-N-2-ethane sulfonic acid (HEPES) (1 M, pH 7.5, stored at 4° C.), sodium citrate (stored at RT), tris(2-carboxyethyl) phosphine hydrochloride (T-CEP) (500 mM, stored at −20° C.), ethylenediaminetetraacetic acid (EDTA) (500 mM, stored at RT), dimethylsulfoxide (DMSO, stored at RT), 3-[(3-cholamidopropyl)dimethylammonio]-1-propane sulphate (CHAPS) (stored at RT), dimethylsulfoxide (DMSO), DMSO (Fisher Scientific, stored at RT), Avi-tagged FL MALT-1 (Pharmaron, stored at −70° C.), Ac-LRSR-AMC Peptide (SM Biochemicals, stored at −20° C.), and ultrapure water (MILLI-QR).
The standard reagent formulations used in this assay were prepared and stored as follows. A 1.1 M solution of sodium citrate (161.3 g, 500 mL) was prepared and stored at room temperature. A 10% (w/v) CHAPS solution (2.0 g, 20 mL) was prepared and stored at 4° C. A 500 mM HEPES solution having pH of 6.89 was prepared from 200 mL of a 1 M HEPES solution having a pH of 7.5 using concentrated hydrochloric acid and brought to a final volume of 400 mL with MILLI-QR H2O. The substrate, 10 mM Ac-LRSR-AMC Peptide, was prepared (10 mg, 1.370 mL DMSO) and stored at −20° C.
Compounds were plated to provide a 2% DMSO final concentration using a ProxiPlate-384 Plus F Black 384-shallow well microplate. The assay-ready plates were equilibrated to room temperature. A reaction buffer (30 mL total volume) was prepared by combining HEPES (pH 6.89, 25 mM, 1.5 mL), sodium citrate (660 mM, 18.0 mL), T-CEP (1 mM, 0.06 mL), EDTA ([…], 0.06 mL), CHAPS (0.05%, 0.15 mL), DMSO (2%, 0.6 mL), and MILLI-QR H2O (10.23 mL; 9.63 mL when backfilled to 2% DMSO) followed by thorough mixing. DMSO was added only when compound plates had not been DMSO-backfilled to 2%.
MALT-1 was thawed and kept on ice. Peptide substrate was thawed on the bench under ambient conditions. A MALT-1 enzyme working stock was prepared from Avi-tagged FL MALT-1 (40 nM in a prepared reagent volume of 16.5 μL) and the reaction buffer (13.0 mL). MALT1 working stock (5 μL) was added to each well of the microplate. MALT-1 was pre-incubated with compounds for 30 minutes at room temperature.
Two substrate working stocks (Km and 10×Km) were prepared. The 1×Km substrate was prepared from Ac-LRSR-AMC Peptide (50 μM in a prepared reagent volume of 35.0 μL) and the reaction buffer (6.965 mL). The 10×Km substrate was prepared from Ac-LRSR-AMC Peptide (280 μM in a prepared reagent volume of 196.0 μL) and the reaction buffer (6.804 mL). The reaction was initiated by the addition of substrate working stock (5 μL, 50 μM) to Km plates and the addition of substrate working stock (5 μL 280 μM) to 10×Km plates. The plates were covered and incubated on the bench at room temperature for 90 minutes.
Fluorescence intensity was determined using a CLARIOstar microplate reader (BMG LABTECH) using the optimised AMC mode. Before taking readings, a 70% gain was applied on the neutral control well. Compound data were normalised to % Inhibition and used to plot sigmoidal concentration response curves to yield various parameters including IC50.

IC50 | Compound
< 500 nM | Cn1nc(-c2cccn3nccc23)c(C(F)(F)F)c1C(=O)Nc1ccnc(C(F)(F)F)c1 [Compound I-87]
< 500 nM | COc1ccccc1-c1nn(C)c(C(=O)Nc2ccnc(C(F)(F)F)c2)c1C(F)(F)F [Compound I-88]
500 to 2500 nM | Cn1nc(-c2cccc(Cl)c2Cl)c(C(F)(F)F)c1C(=O)Nc1ccnc(C(F)(F)F)c1 [Compound I-89]
500 to 2500 nM | Cn1nc(-c2csc3ncccc23)c(C(F)(F)F)c1C(=O)Nc1ccnc(C(F)(F)F)c1 [Compound I-90]
500 to 2500 nM | Cn1nc(-c2cccc3c2CCO3)c(C(F)(F)F)c1C(=O)Nc1ccnc(C(F)(F)F)c1 [Compound I-91]
< 500 nM | Cn1nc(-c2csc3ccccc23)c(C(F)(F)F)c1C(=O)Nc1ccnc(C(F)(F)F)c1 [Compound I-92]
500 to 2500 nM | Cn1nc(-c2cc(OC3COC3)ccc2Cl)c(C(F)(F)F)c1C(=O)Nc1ccnc(C(F)(F)F)c1 [Compound I-93]
500 to 2500 nM | Cn1nc(-c2cccc3c2COC3)c(C(F)(F)F)c1C(=O)Nc1ccnc(C(F)(F)F)c1 [Compound I-95]
< 500 nM | Cn1nc(-c2cccc3scnc23)c(C(F)(F)F)c1C(=O)Nc1ccnc(C(F)(F)F)c1 [Compound I-96]
500 to 2500 nM | Cn1nc(-c2cccc3[nH]ccc23)c(C(F)(F)F)c1C(=O)Nc1ccnc(C(F)(F)F)c1 [Compound I-97]
> 10000 nM | CN1Cc2c(cccc2-c2nn(C)c(C(=O)Nc3ccnc(C(F)(F)F)c3)c2C(F)(F)F)C1=O [Compound I-98]
< 500 nM | Cn1nc(-c2cccc3ccsc23)c(C(F)(F)F)c1C(=O)Nc1ccnc(C(F)(F)F)c1 [Compound I-99]
> 10000 nM | CC(=O)Nc1cc(-c2nn(C)c(C(=O)Nc3ccnc(C(F)(F)F)c3)c2C(F)(F)F)ccn1 [Compound I-100]
500 to 2500 nM | Cc1csc2c(-c3nn(C)c(C(=O)Nc4ccnc(C(F)(F)F)c4)c3C(F)(F)F)cccc12 [Compound I-101]
2500 to 10000 nM | Cn1nc(-c2cccn3nnnc23)c(C(F)(F)F)c1C(=O)Nc1ccnc(C(F)(F)F)c1 [Compound I-102]
2500 to 10000 nM | Cn1cc(-c2nn(C)c(C(=O)Nc3ccnc(C(F)(F)F)c3)c2C(F)(F)F)c(C2CC2)n1 [Compound I-103]
> 10000 nM | COc1cc(-c2nn(C)c(C(=O)Nc3ccnc(C(F)(F)F)c3)c2C(F)(F)F)c2scnc2c1 [Compound I-104]
500 to 2500 nM | Cn1nc(-c2nccc3ccccc23)c(C(F)(F)F)c1C(=O)Nc1ccnc(C(F)(F)F)c1 [Compound I-105, 3-(isoquinolin-1-yl)-1-methyl-4-(trifluoromethyl)-N-(2-(trifluoromethyl)pyridin-4-yl)-1H-pyrazole-5-carboxamide]
< 500 nM | Cn1nc(-c2nccc3ccoc23)c(C(F)(F)F)c1C(=O)Nc1ccnc(C(F)(F)F)c1 [Compound I-106]
> 10000 nM | Cn1nc(-c2nccc3ncsc23)c(C(F)(F)F)c1C(=O)Nc1ccnc(C(F)(F)F)c1 [Compound I-107]

IC50 | Compound
> 10000 nM | COCCn1cc(-c2nn(C)c(C(=O)Nc3ccnc(C(F)(F)F)c3)c2C(F)(F)F)c2ccncc21 [Compound I-108]
> 10000 nM | Cn1nc(-c2cccc3nnsc23)c(C(F)(F)F)c1C(=O)Nc1ccnc(C(F)(F)F)c1 [Compound I-109]
500 to 2500 nM | Cn1nc(-c2ccnc3c(F)cccc23)c(C(F)(F)F)c1C(=O)Nc1ccnc(C(F)(F)F)c1 [Compound I-110]
500 to 2500 nM | Cn1nc(-c2nccn3ccnc23)c(C(F)(F)F)c1C(=O)Nc1ccnc(C(F)(F)F)c1 [Compound I-111]
2500 to 10000 nM | Cn1nc(-c2cn(C)c3c(=O)[nH]ccc23)c(C(F)(F)F)c1C(=O)Nc1ccnc(C(F)(F)F)c1 [Compound I-112]
500 to 2500 nM | Cn1nc(-c2csc3c(=O)[nH]ccc23)c(C(F)(F)F)c1C(=O)Nc1ccnc(C(F)(F)F)c1 [Compound I-113]
500 to 2500 nM | Cn1nc(-c2cncc3ccn(C)c23)c(C(F)(F)F)c1C(=O)Nc1ccnc(C(F)(F)F)c1 [Compound I-114]
2500 to 10000 nM | Cn1nc(-c2cncc3cc[nH]c23)c(C(F)(F)F)c1C(=O)Nc1ccnc(C(F)(F)F)c1 [Compound I-115]
500 to 2500 nM | Cn1nc(-c2cccc3c(=O)[nH]ncc23)c(C(F)(F)F)c1C(=O)Nc1ccnc(C(F)(F)F)c1 [Compound I-116]
500 to 2500 nM | Cn1nc(-c2cccc3nc(N)sc23)c(C(F)(F)F)c1C(=O)Nc1ccnc(C(F)(F)F)c1 [Compound I-117]
2500 to 10000 nM | Cn1nc(-c2cccc3nncn23)c(C(F)(F)F)c1C(=O)Nc1ccnc(C(F)(F)F)c1 [Compound I-118]
2500 to 10000 nM | Cn1nc(-c2cncc3nccn23)c(C(F)(F)F)c1C(=O)Nc1ccnc(C(F)(F)F)c1 [Compound I-119]
< 500 nM | Cn1nc(-c2csc3cnccc23)c(C(F)(F)F)c1C(=O)Nc1cnc(-n2nccn2)c(C(F)(F)F)c1 [Compound I-120, N-(6-(2H-1,2,3-triazol-2-yl)-5-(trifluoromethyl)pyridin-3-yl)-1-methyl-3-(thieno[2,3-c]pyridin-3-yl)-4-(trifluoromethyl)-1H-pyrazole-5-carboxamide]
< 500 nM | Cn1nc(-c2cccc3ncccc23)c(C(F)(F)F)c1C(=O)Nc1cnc(-n2nccn2)c(C(F)F)c1 [Compound I-121]
< 500 nM | Cn1nc(-c2cccc3ncccc23)c(C(F)(F)F)c1C(=O)Nc1cnc(-n2nccn2)c(C(F)(F)F)c1 [Compound I-122]
> 10000 nM | Cn1nc(-c2cccc3ncn(C4CC4)c23)cc1C(=O)Nc1ccnc(C(F)(F)F)c1 [Compound I-123]
500 to 2500 nM | Cn1nc(-c2c[nH]c3cnccc23)c(C(F)(F)F)c1C(=O)Nc1ccnc(C(F)(F)F)c1 [Compound I-124]
< 500 nM | Cn1nc(-c2cccc3ncsc23)c(C(F)(F)F)c1C(=O)Nc1cnc(-n2nccn2)c(C(F)(F)F)c1 [Compound I-125]
< 500 nM | Cn1nc(-c2cccc3ncsc23)c(C(F)(F)F)c1C(=O)Nc1cnc(-n2nccn2)c(Cl)c1 [Compound I-126]
< 500 nM | Cn1nc(-c2cccc3ccoc23)c(C(F)(F)F)c1C(=O)Nc1cnc(-n2nccn2)c(C(F)(F)F)c1 [Compound I-127]
